Measurements as given in patent publication US20120045393A1 (priority 2009, published 2012).
Starred links: 1 amine or outer side, 2 acyl side, 3 side chain; linkers in the order of their positions; H or OH if unused. Non-standard residues stand in square brackets, D forms with d. Residues, ends and D or L forms follow the SMILES beside them. *: point of attachment. DOTA = O=C(O)CN1CCN(CC(=O)O)CCN(CC(=O)*)CCN(CC(=O)O)CC1; Bpa = N[C@@H](Cc1ccc(C(=O)c2ccccc2)cc1)C(=O)O; d2Nal = N[C@H](Cc1ccc2ccccc2c1)C(=O)O; X2 = O=C(N(N[*:1])c1ccccn1)[*:2]; Nicotinoyl = O=C(c1cccnc1)*; NHPh = c1ccc(N*)cc1; azaGly = NNC(=O)O; Sar = CNCC(=O)O

Tested on: LHRH binding sites on human ovarian cancer cells (EFO-27)
Conditions: not given
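Further: Cell-associated radioactivity on confluent EFO-27 monolayers in 96-well plates, measured by microplate scintillation counting.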

Row | EC50 | SMILES
1 | 0.9 µM | N=C(N)NCCC[C@H](NC(=O)[C@@H](Cc1ccc2ccccc2c1)NC(=O)CN1CCN(CC(=O)O)CCN(CC(=O)O)CCN(CC(=O)O)CC1)C(=O)N[C@@H](Cc1c[nH]c2ccccc12)C(=O)N[C@@H](CO)C(=O)N[C@@H](Cc1c[nH]cn1)C(=O)N[C@H](CCCNC(=N)N)C(=O)N[C@@H](Cc1c[nH]c2ccccc12)C(=O)N[C@@H](Cc1ccc(C(=O)c2ccccc2)cc1)C(=O)N1CCC[C@H]1C(=O)NNC(=O)NCCCCN [compound 3019]
2 | 0.58 µM | CN(C(=O)CN1CCN(CC(=O)O)CCN(CC(=O)O)CCN(CC(=O)O)CC1)[C@H](Cc1ccc2ccccc2c1)C(=O)N[C@@H](CCCNC(=N)N)C(=O)N[C@@H](Cc1c[nH]c2ccccc12)C(=O)N[C@@H](CO)C(=O)N[C@@H](Cc1c[nH]cn1)C(=O)N[C@H](CCCNC(=N)N)C(=O)N[C@@H](Cc1c[nH]c2ccccc12)C(=O)N[C@@H](Cc1ccc(C(=O)c2ccccc2)cc1)C(=O)N1CCC[C@H]1C(=O)NNC(N)=O [BRU-2965]
3 | 22.6 µM | CN(CC(=O)N[C@@H](Cc1c[nH]cn1)C(=O)N[C@@H](Cc1c[nH]c2ccccc12)C(=O)N[C@@H](CO)C(=O)N[C@@H](Cc1c[nH]cn1)C(=O)N[C@H](CCCCNC(=O)c1cccnc1)C(=O)N[C@@H](Cc1c[nH]c2ccccc12)C(=O)N[C@@H](Cc1ccc(O)cc1)C(=O)N1CCC[C@H]1C(=O)NNC(N)=O)C(=O)CN1CCN(CC(=O)O)CCN(CC(=O)O)CCN(CC(=O)O)CC1 [compound 2674] ({DOTA}-[Sar]HWSH[dK](Nicotinoyl)WYP[azaGly]-NH2)
4 | 3.28 µM | N=C(N)NCCC[C@H](NC(=O)[C@H](CO)NC(=O)[C@H](Cc1c[nH]c2ccccc12)NC(=O)[C@H](CCCNC(=N)N)NC(=O)[C@@H](Cc1ccc2ccccc2c1)NC(=O)CN1CCN(CC(=O)O)CCN(CC(=O)O)CCN(CC(=O)O)CC1)C(=O)N[C@H](Cc1c[nH]c2ccccc12)C(=O)N[C@@H](Cc1c[nH]c2ccccc12)C(=O)N[C@@H](Cc1ccc(C(=O)c2ccccc2)cc1)C(=O)N1CCC[C@H]1C(=O)NNC(N)=O [compound 3001] ({DOTA}-[d2Nal]RWSR[dW]W[Bpa]P[azaGly]-NH2)
5 | 0.23 to 0.5 µM | CNCC(=O)N[C@@H](CCCNC(=N)N)C(=O)N[C@@H](Cc1c[nH]c2ccccc12)C(=O)N[C@@H](CO)C(=O)N[C@@H](Cc1c[nH]cn1)C(=O)N[C@H](CCCNC(=N)N)C(=O)N[C@@H](Cc1c[nH]c2ccccc12)C(=O)N[C@@H](Cc1ccc(C(=O)c2ccccc2)cc1)C(=O)N1CCC[C@H]1C(=O)NCCOCCNC(=O)CN1CCN(CC(=O)O)CCN(CC(=O)O)CCN(CC(=O)O)CC1 [BRU-3039]
6 | 0.44 µM | CN(CC(N)=O)NC(=O)[C@@H]1CCCN1C(=O)[C@H](Cc1ccc(C(=O)c2ccccc2)cc1)NC(=O)[C@H](Cc1c[nH]c2ccccc12)NC(=O)[C@@H](CCCNC(=N)N)NC(=O)[C@H](Cc1c[nH]cn1)NC(=O)[C@H](CO)NC(=O)[C@H](Cc1c[nH]c2ccccc12)NC(=O)[C@H](CCCNC(=N)N)NC(=O)[C@@H](Cc1ccc2ccccc2c1)NC(=O)CN1CCN(CC(=O)O)CCN(CC(=O)O)CCN(CC(=O)O)CC1 [compound 2967]
7 | 12.3 µM | CC(C)NCCCC[C@H](NC(=O)[C@H](Cc1c[nH]c2ccccc12)NC(=O)[C@@H](CCCNC(=N)N)NC(=O)[C@H](Cc1c[nH]cn1)NC(=O)[C@H](CO)NC(=O)[C@H](Cc1c[nH]c2ccccc12)NC(=O)[C@H](Cc1c[nH]cn1)NC(=O)CN(C)C(=O)CN1CCN(CC(=O)O)CCN(CC(=O)O)CCN(CC(=O)O)CC1)C(=O)N1CCC[C@H]1C(=O)NNC(N)=O [BRU-2675]
8 | 30.2 ± 8.28 µM | N=C(N)NCCC[C@H](NC(=O)[C@H](N)Cc1ccc2ccccc2c1)C(=O)N[C@@H](Cc1c[nH]c2ccccc12)C(=O)N[C@@H](CO)C(=O)N[C@@H](Cc1c[nH]cn1)C(=O)N[C@H](CCCNC(=N)N)C(=O)N[C@@H](Cc1c[nH]c2ccccc12)C(=O)N[C@@H](Cc1ccc(C(=O)c2ccccc2)cc1)C(=O)N1CCC[C@H]1C(=O)NCC(=O)NCCCCNC(=O)CN1CCN(CC(=O)O)CCN(CC(=O)O)CCN(CC(=O)O)CC1 [compound 2990]
9 | 0.97 µM | CCNC(=O)[C@@H]1CCCN1C(=O)[C@H](Cc1ccc(C(=O)c2ccccc2)cc1)NC(=O)[C@H](Cc1c[nH]c2ccccc12)NC(=O)[C@@H](CCCNC(=N)N)NC(=O)[C@H](Cc1c[nH]cn1)NC(=O)[C@H](CO)NC(=O)[C@H](Cc1c[nH]c2ccccc12)NC(=O)[C@H](CCCNC(=N)N)NC(=O)[C@@H](Cc1ccc2ccccc2c1)NC(=O)CN1CCN(CC(=O)O)CCN(CC(=O)O)CCN(CC(=O)O)CC1 [compound 2981]

Row | SMILES | EC50
10 | CN(CC(=O)N[C@@H](Cc1c[nH]cn1)C(=O)N[C@@H](Cc1c[nH]c2ccccc12)C(=O)N[C@@H](CO)C(=O)N[C@@H](Cc1c[nH]cn1)C(=O)N[C@H](CCCNC(=N)N)C(=O)N[C@@H](Cc1c[nH]c2ccccc12)C(=O)N[C@@H](Cc1c[nH]cn1)C(=O)N1CCC[C@H]1C(=O)NNC(N)=O)C(=O)CN1CCN(CC(=O)O)CCN(CC(=O)O)CCN(CC(=O)O)CC1 [BRU-2763] (HELM PEPTIDE1{[O=C(O)CN1CCN(CC(=O)O)CCN(CC(=O)[*:2])CCN(CC(=O)O)CC1].[Sar].H.W.S.H.[dR].W.H.P.[O=C(NN[*:1])[*:2]].[am]}$$$$V2.0) | 13.6 µM

Same assay, conditions: EFO-27 cells, competition with [125I-Tyr8]BRU-2477, 90 min

Row | SMILES | EC50
11 | N=C(N)NCCC[C@H](NC(=O)[C@@H](Cc1ccc2ccccc2c1)NC(=O)CN1CCN(CC(=O)O)CCN(CC(=O)O)CCN(CC(=O)O)CC1)C(=O)N[C@@H](Cc1c[nH]c2ccccc12)C(=O)N[C@@H](CO)C(=O)N[C@@H](Cc1c[nH]cn1)C(=O)N[C@H](CCCNC(=N)N)C(=O)N[C@@H](Cc1c[nH]c2ccccc12)C(=O)N[C@@H](Cc1ccc(C(=O)c2ccccc2)cc1)C(=O)N1CCC[C@H]1C(=O)NCC(=O)NN(C(=O)Nc1ccccc1)c1ccccn1 [compound 2989] ({DOTA}-[d2Nal]RWSH[dR]W[Bpa]PG[X2]-NHPh) | 1.13 µM
12 | CN(CC(=O)N[C@@H](Cc1c[nH]cn1)C(=O)N[C@@H](Cc1c[nH]c2ccccc12)C(=O)N[C@@H](CO)C(=O)N[C@@H](Cc1c[nH]cn1)C(=O)N[C@H](CCCCNC(=N)N)C(=O)N[C@@H](Cc1c[nH]c2ccccc12)C(=O)N[C@@H](Cc1ccc(C(=O)c2ccccc2)cc1)C(=O)N1CCC[C@H]1C(=O)NNC(N)=O)C(=O)CN1CCN(CC(=O)O)CCN(CC(=O)O)CCN(CC(=O)O)CC1 [BRU-2893] | 2.6 µM

Same assay, conditions: Table 5: modifications of amino acids at positions 1 and 2; in vitro binding on EFO-27 cells

Row | SMILES | EC50
13 | CN(CC(=O)N[C@@H](Cc1c[nH]cn1)C(=O)N[C@@H](Cc1c[nH]c2ccccc12)C(=O)N[C@@H](CO)C(=O)N[C@@H](Cc1c[nH]cn1)C(=O)N[C@H](CCCNC(=N)N)C(=O)N[C@@H](Cc1c[nH]c2ccccc12)C(=O)N[C@@H](Cc1ccc(C(=O)c2ccccc2)cc1)C(=O)N1CCC[C@H]1C(=O)NNC(N)=O)C(=O)CNC(=O)CN1CCN(CC(=O)O)CCN(CC(=O)O)CCN(CC(=O)O)CC1 [BRU-2717] | 1.55 µM
14 | N=C(N)NCCC[C@@H](NC(=O)[C@H](Cc1c[nH]cn1)NC(=O)[C@H](CO)NC(=O)[C@H](Cc1c[nH]c2ccccc12)NC(=O)[C@H](Cc1c[nH]cn1)NC(=O)[C@H](Cc1ccccc1)NC(=O)CN1CCN(CC(=O)O)CCN(CC(=O)O)CCN(CC(=O)O)CC1)C(=O)N[C@@H](Cc1c[nH]c2ccccc12)C(=O)N[C@@H](Cc1ccc(C(=O)c2ccccc2)cc1)C(=O)N1CCC[C@H]1C(=O)NNC(N)=O [BRU-2735] | 1.14 µM

Same assay, conditions: ratio of EC50 to BRU-2813 (EC50=0.33 μM)

Row | SMILES | binding potency, times lower than BRU-2813
15 | CN(C(=O)CN1CCN(CC(=O)O)CCN(CC(=O)O)CCN(CC(=O)O)CC1)[C@H](Cc1ccc2ccccc2c1)C(=O)N[C@@H](CCCNC(=N)N)C(=O)N[C@@H](Cc1c[nH]c2ccccc12)C(=O)N[C@@H](CO)C(=O)N[C@@H](Cc1c[nH]cn1)C(=O)N[C@H](CCCNC(=N)N)C(=O)N[C@@H](Cc1c[nH]c2ccccc12)C(=O)N[C@@H](Cc1ccc(C(=O)c2ccccc2)cc1)C(=O)N1CCC[C@H]1C(=O)NNC(N)=O [BRU-2965] | ~2
